# Patent US10336784B2, “Methods for modular synthesis of N-glycans and arrays thereof” (Academia Sinica, priority 2016, dated 2019)
# “Also recorded” adds a separate entry of the source.
# Key:
# PGTs 141-144 = experiment: Glycan array on ACG slide, binding of PGTs 141-144; design: species or system human; conditions: panel of glycans I-XI
# Method: To understand the exact glycan epitopes recognized by antibodies PGTs 141-145^20, a panel of glycans I-XI on the ACG slide was prepared for analysis.
# b) Fabrication of aluminum oxide coated glass slide. The aluminum oxide glass substrate provides advantages for being able to be assessed by both mass spectrometry and fluorescence scanning. […] There are many reports describing the surface of micron to nano pore structures of anodized aluminum oxide. However, only a few articles have mentioned the initial planar layer of aluminum oxide16 during the treatment of surface anodization. In the development of AAO glass substrate, a computer experimental design program (Design Expert 8.0) has been used to optimize the planar layer of surface anodized aluminum oxide to be best used in glycan microarray 17.
# Antibodies PG9, PG16 and PGTs 141-145 were diluted by binding buffer to 100 μg/mL prior to use. DyLight649-conjugated Donkey Anti-Human IgG antibody was then pre-complexed with primary antibodies. The final concentration of the precomplexed solution was adjusted to 50 μg/mL with binding buffer. […]
# (§1) The slide was scanned at 635 nm with a microarray fluorescence chip reader (GenePix® 4300A, Molecular Devices Corporation). Scanned images were analyzed with GenePix Pro 6.0 analysis software (Molecular Devices Corporation,). […] The intensities was calculated and averaged. […]
# PG16 [1] = experiment: Glycan microarray on NHS-coated glass slide, binding of PG16; design: species or system human; conditions: NHS-activated glass slide, glycans printed at 100 μM
# Method: To gain insights into the glycan specificities of these antibodies, the inventors used our newly developed array to profile the ligands of HIV-1 bNAbs. The synthetic N-glycan ligands were printed on NHS-activated glass slides through amide bond formation with 100 μM each of glycans 1-33 (FIG. 198). Each sample was printed with five replicates and slide images were obtained from a fluorescence scan after incubation with DyLight649-conjugated donkey anti-Human IgG antibody. […] Furthermore, PG9 and PGTs 141-145 were not detected to bind any of the glycans on the NHS array, probably due to their extremely weak binding. (FIGS. 203, 204A, 204B, 204C, 205A, 205B and 206).
# a) Fabrication of N-hydroxy succinimide-coated glass slide: All monovalent glycans (G1-33) were prepared in 10 mM concentration individually and served as mother solutions which are to be diluted with printing buffer to prepare a working solution. […]
# as §1
# PG16 [2] = experiment: Determination of surface dissociation constants (KD,surf) on ACG slide; type: binding, human
# Text: (§2) To further understand why glycan binding to these bNAbs was not readily observed on the NHS-coated glass slides, the inventors conducted a specificity test with the ACG array. […] Therefore, the inventors can simply adjust the concentration of glycan to control the density and distance of glycans on the ACG surface. To prepare a representative ACG array, glycans I-XI (FIG. 5a) were linked to a phosphonic acid tail for spontaneous covalent immobilization on the ACG slide (Supplementary Scheme S21, as shown in FIG. 129). After incubation with a secondary antibody, the inventors determined the dissociation constant (KD.surf.)^59 of the glycans interacting with the antibody of interest. […]
# (§3) b) Fabrication of aluminum oxide coated glass slide. The aluminum oxide glass substrate provides advantages for being able to be assessed by both mass spectrometry and fluorescence scanning. […]
# The aluminum oxide coated glass slides for the determination of dissociation constants were spotted with 100 and 50 μM concentrations of glycans Man5GlcNAc2 (V), hybrid type (XI), bi-antennary complex type (XII), V+XI (1:1 mole ratio), V+XII, and XI+XII. […] Finally, slides were washed with PBST, spin dried and scanned at 450 nm with a microarray fluorescence chip reader. Scanned images were analyzed with GenePix Pro 6.0 analysis software. […]
# PG9 = experiment: Glycan array on aluminium oxide-coated glass (ACG) slide, homo- and mixed glycans, binding of PG9; conditions: homogeneous array of glycans I-XI
# Text: To evaluate whether the ACG array format could enhance the detection sensitivity, the inventors performed a ligand specificity profiling at various concentrations of PG9. […] Previously, it was shown that PG9 required Man5GlcNAc2 at primary (Asn160) and secondary (Asn156 or Asn173) binding sites together with a short peptide strand in gp120 recognition^26, whereas the composition of glycan at Asn156 or Asn173 was defined as a complex-type glycan in later studies^30,31. In the present study, the strong PG9 interaction with the hybrid-type structure compared to both Man5GlcNAc2 and complex-type glycans indicated the presence of a hybrid-type glycan or an oligomannose and a complex-type glycan in close proximity as ligand(s).
# To evaluate the glycan combination at Asn160 and Asn156/Asn173 of gp120 that best fits into the PG9 binding pocket, the inventors printed two different mixed-glycan arrays. […]
# as §3, §1
# PG16 [3] = experiment: Glycan array on aluminium oxide-coated glass (ACG) slide, homo- and mixed glycans, binding of PG16; conditions: 100 μM glycan or mixtures of IV and XI
# Text: as §2, with “interest. Using the ACG slide, the signal intensity was enhanced, as shown by the use of PG16 at 1 μg/mL on the ACG slide in comparison to 25 μg/mL used on the NHS-coated glass slide (FIG. 5b and Supplementary FIG. 199).” for “interest.”
# as §3, §1
molecule,measurement,setting,value
CC(=O)N[C@H]1[C@H](O[C@H]2[C@H](O)[C@@H](NC(C)=O)C(O)O[C@@H]2CO)O[C@H](CO)[C@@H](O[C@@H]2O[C@H](CO[C@H]3O[C@H](CO[C@H]4O[C@H](CO)[C@@H](O)[C@H](O)[C@@H]4O[C@H]4O[C@H](CO)[C@@H](O)[C@H](O)[C@@H]4O)[C@@H](O)[C@H](O[C@H]4O[C@H](CO)[C@@H](O)[C@H](O)[C@@H]4O[C@H]4O[C@H](CO)[C@@H](O)[C@H](O)[C@@H]4O)[C@@H]3O)[C@@H](O)[C@H](O[C@H]3O[C@H](CO)[C@@H](O)[C@H](O)[C@@H]3O[C@H]3O[C@H](CO)[C@@H](O)[C@H](O)[C@@H]3O[C@H]3O[C@H](CO)[C@@H](O)[C@H](O)[C@@H]3O)[C@@H]2O)[C@@H]1O (stereo partly shown) [Man9GlcNAc2],binding of PGTs 141-144,PGTs 141-144,significant decrease in the affinity
"5-Aminopentyl-di-[5-Acetamido-3,5-dideoxy-D-glycero-α-D-galacto-2-nonulopyrano-sylonate-(2→6)-β-D-galactopyranosyl-(1→4)-2-acetamido-2-deoxy-β-D-glucopyranosyl-(1→2)-α-D-mannopyranosyl]-(1→3),(1→6)-β-D-mannopyranosyl-(1→4)-2-acetamido-2-deoxy-β-D-glucopyranosyl-(1→4)-(α-L-fucopyranosyl-(1→6)-2-acetamido-2-deoxy-β-D-glucopyranoside [glycan 19]",binding of PG16,PG16 [1],not affected by the presence of the core fucose
CC(=O)NC1C(O)[C@H](O[C@@H]2OC(CO[C@]3(C(=O)O)CC(O)[C@@H](NC(C)=O)C([C@H](O)[C@H](O)CO)O3)[C@H](O)C(O)C2O)C(CO)O[C@H]1OC1C(O)[C@H](O)C(CO)O[C@@H]1OC1C(O)[C@H](O[C@@H]2C(CO)O[C@@H](O[C@@H]3C(CO)O[C@@H](OCCNC(=O)OCCOCCOCCP(=O)(O)O)C(NC(C)=O)C3O)C(NC(C)=O)C2O)OC(CO[C@H]2OC(CO[C@H]3OC(CO)[C@@H](O)C(O)C3O)[C@@H](O)C(O[C@H]3OC(CO)[C@@H](O)C(O)C3O)C2O)[C@H]1O (stereo partly shown) [X],Kd,PG16 [2]; read-out: KD (binding affinity of PG16),935 nM
same,binding of PG9 to single glycans,PG9,apparent specificity; also recorded: significant enhancement in binding
Man5GlcNAc2,binding of PG16,PG16 [1],could not observe binding
same,signal intensities for binding of PG16,PG16 [2]; glycans spotted at 100 and 50 μM,too weak to determine the KD
same,binding of PG16,PG16 [3],unable to detect PG16 binding
